This note sets out measurements from patent US9700058B2, “Dispersion and detachment of cell aggregates” (priority 2011, dated 2017).

Positions of bridges follow the written chain, without caps; N, C: chain ends. No end group written: not given here.

One experiment concerns Staphylococcus aureus (ATCC25923). Description: Biofilm prevention, crystal violet, 96-well plate. The settings on record: peptide 100 ng/ml, added simultaneously, 24 h, 37° C. Type of experiment: cell-based. The protocol:
(§1) The peptides depicted in Table 1 (each with a cysteine attached to the N- and C-terminus of the peptides) were synthesized using solid-phase methods and were purified to 90% (Peptron, Inc.; Taejeon, South Korea). The peptides were dissolved in 20 μl dimethyl sulfoxide and diluted in double distilled water to a concentration of 10 mg/ml. Additional dilutions were performed in phosphate buffered saline (PBS).
(§2) The ability of these peptides to prevent microbial adhesion to a surface or detach microbial adhesion from a surface were measured against the following microbial strains: Pseudomonas aeruginosa (ATCC27853), Staphylococcus aureus (ATCC25923), Candida albicans (ATCC14053) and Acinetobacter baumannii (clinical isolate). Specifically, peptides diluted to concentrations of 100 ng/ml were incubated with the foregoing microbes for 24 hours.
(§3) Biofilms of the foregoing microorganisms were grown in a 96-well found-bottom polystyrene plate. Specifically, 180 μl of overnight cultures were added to the wells with 20 μl of each peptide diluted in PBS, either simultaneously to measure prevention or after a period of time to measure detachment from 4 hours up to 24 hours post incubation. After 24 hours of incubation at 37° C., each well was washed with water and stained with 250 μl of crystal violet solution. The crystal violet solution was then removed by thoroughly washing the wells with water. To quantify the number of bacteria cells attached to the wells, the crystal violet was solubilized in 250 μl of 1% sodium dodecyl sulfate and the absorbance was measured at 595 nm.
(§4) The ability of these peptides to (1) prevent microbial adhesion to a surface and to (2) detach microbes already adhered to a surface were measured against the following microbial strains: Pseudomonas aeruginosa (ATCC27853), Staphylococcus aureus (ATCC25923), Candida albicans (ATCC14053) and/or Escherichia coli. The resulting percentage of prevention or detachment, relative to control wells in which the microbes was allowed to culture in the absence of peptides, are indicated in FIGS. 13 to 16.
As for “CKVNSFDYDWYNVC (disulfide 1-14 (inferred)) [MeleagZ-cyc]”, the “Biofilm prevention (%)” value came to 73%.
Consider “CNVHSFDYDWYNVC (disulfide 1-14 (inferred)) [CanisZ-cyc]”, for which the “Biofilm prevention (%)” value is reported as 75%.
As to “CRINSFDYDWYNVC (disulfide 1-14 (inferred)) [TetraoZ-cyc]”, the “Biofilm prevention (%)” value worked out at 52%.
Same read-out and setting: the value for “CRVESFDFDWYNIC (disulfide 1-14 (inferred)) [SalmoZ-cyc]” was 80%; that for “CRVESFNYDWYNVC (disulfide 1-14 (inferred)) [NilotiZ-cyc]” was 63%.
Still for that read-out and setting: the value for “CSAPYNFNFYSNWC (disulfide 1-14 (inferred)) [EchoZ-cyc]” was 85%.

A further experiment relates to Acinetobacter baumannii (clinical isolate). Description: Biofilm detachment, crystal violet, 96-well plate. It is filed as cell-based. Particulars: peptide 100 ng/ml, added after adhesion. As to the method:
as §1, §2, §3
On to “CNVHSFDYDWYNVC (disulfide 1-14 (inferred)) [CanisZ-cyc]”, for which the “Detachment (%) (100 ng/ml)” value is recorded as 73%.
Consider “CSAPYNFNFYSNWC (disulfide 1-14 (inferred)) [EchoZ-cyc]”, for which the “Detachment (%) (100 ng/ml)” value is listed as 60%.

The test system is the same in a further experiment. Description: Biofilm prevention, crystal violet, 96-well plate. It is filed as cell-based. Particulars: peptide 10 ng/ml, added simultaneously, 24 h, 37° C. The protocol: as §1
(§5) The ability of these peptides to prevent microbial adhesion to a surface or detach microbial adhesion from a surface were measured against the following microbial strains: Pseudomonas aeruginosa (ATCC27853), Staphylococcus aureus (ATCC25923), Candida albicans (ATCC14053) and Acinetobacter baumannii (clinical isolate). […]
as §3
In the case of “CNVHSFDYDWYNVC (disulfide 1-14 (inferred)) [CanisZ-cyc]”, the “Biofilm prevention (%)” value worked out at 60%.
Take “CRINSFDYDWYNVC (disulfide 1-14 (inferred)) [TetraoZ-cyc]”: the “Biofilm prevention (%)” value is 70%.

The same experiment, now with this note: peptide 100 ng/ml, added simultaneously, 24 h, 37° C.
Turning to “CKVNSFDYDWYNVC (disulfide 1-14 (inferred)) [MeleagZ-cyc]”, the “Biofilm prevention (%)” value was 95%.
Same read-out and setting: the result for “CRVESFDFDWYNIC (disulfide 1-14 (inferred)) [SalmoZ-cyc]” reads 95%.
Still for that read-out and setting: the value for “CRVESFNYDWYNVC (disulfide 1-14 (inferred)) [NilotiZ-cyc]” was 87%; that for “CSAPYNFNFYSNWC (disulfide 1-14 (inferred)) [EchoZ-cyc]” was 80%.

A further experiment has as its system Candida albicans (ATCC14053). Description: Biofilm prevention, crystal violet, 96-well plate. The settings on record: peptide 10 ng/ml, added simultaneously, 24 h, 37° C. Type of experiment: cell-based. As to the method:
as §1, §5, §3, §4
Consider “CSAPYNFNFYSNWC (disulfide 1-14 (inferred)) [EchoZ-cyc]”, for which the “Biofilm prevention (%)” value worked out at 80%.

Still in this experiment, the particulars now being: peptide 100 ng/ml, added simultaneously, 24 h, 37° C.
Regarding “CKVNSFDYDWYNVC (disulfide 1-14 (inferred)) [MeleagZ-cyc]”, the “Biofilm prevention (%)” value is recorded as 30%.
Same read-out and setting: the result for “CNVHSFDYDWYNVC (disulfide 1-14 (inferred)) [CanisZ-cyc]” reads 80%; that for “CRINSFDYDWYNVC (disulfide 1-14 (inferred)) [TetraoZ-cyc]”, 25%.
“CRVESFDFDWYNIC (disulfide 1-14 (inferred)) [SalmoZ-cyc]”: the “Biofilm prevention (%)” value came out at 55%.
For “CRVESFNYDWYNVC (disulfide 1-14 (inferred)) [NilotiZ-cyc]”, the “Biofilm prevention (%)” value amounted to 30%.

The next experiment has as its system Pseudomonas aeruginosa (ATCC27853). Description: Biofilm prevention, crystal violet, 96-well plate. Type of experiment: cell-based. Particulars: peptide 10 ng/ml, added simultaneously, 24 h, 37° C. As to the method: as §1, §5, §3, §4
Regarding “CRVESFDFDWYNIC (disulfide 1-14 (inferred)) [SalmoZ-cyc]”, the “Biofilm prevention (%)” value came out at 90%.

The same experiment, now with this note: peptide 100 ng/ml, added simultaneously, 24 h, 37° C.
Consider “CKVNSFDYDWYNVC (disulfide 1-14 (inferred)) [MeleagZ-cyc]”, for which the “Biofilm prevention (%)” value turned out to be 82%.
Same read-out and setting: the result for “CNVHSFDYDWYNVC (disulfide 1-14 (inferred)) [CanisZ-cyc]” reads 95%.
On the same count and under the same terms, the value for “CRINSFDYDWYNVC (disulfide 1-14 (inferred)) [TetraoZ-cyc]” was 45%; that for “CRVESFNYDWYNVC (disulfide 1-14 (inferred)) [NilotiZ-cyc]” was 90%; that for “CSAPYNFNFYSNWC (disulfide 1-14 (inferred)) [EchoZ-cyc]” was 90%.

The next experiment deals with Candida albicans (ATCC14053). Description: Biofilm detachment, crystal violet, 96-well plate. Type of experiment: cell-based. Particulars: peptide 100 ng/ml, added after adhesion. The protocol: as §1, §2, §3, §4
With “CKVNSFDYDWYNVC (disulfide 1-14 (inferred)) [MeleagZ-cyc]”, the “Detachment (%) (100 ng/ml)” value stood at 62%.
Consider “CNVHSFDYDWYNVC (disulfide 1-14 (inferred)) [CanisZ-cyc]”, for which the “Detachment (%) (100 ng/ml)” value is 45%.
In the case of “CRINSFDYDWYNVC (disulfide 1-14 (inferred)) [TetraoZ-cyc]”, the “Detachment (%) (100 ng/ml)” value is listed as 55%.
Regarding “CRVESFDFDWYNIC (disulfide 1-14 (inferred)) [SalmoZ-cyc]”, the “Detachment (%) (100 ng/ml)” value turned out to be 73%.
For the sequence “CRVESFNYDWYNVC (disulfide 1-14 (inferred)) [NilotiZ-cyc]”, the “Detachment (%) (100 ng/ml)” value is 65%.

In a further experiment the test system is Staphylococcus aureus (ATCC25923). Description: Biofilm detachment, crystal violet, 96-well plate. It is filed as cell-based. The settings on record: peptide 100 ng/ml, added after adhesion. The protocol: as §1, §2, §3, §4
Regarding “CKVNSFDYDWYNVC (disulfide 1-14 (inferred)) [MeleagZ-cyc]”, the “Detachment (%) (100 ng/ml)” value is 80%.
With “CRINSFDYDWYNVC (disulfide 1-14 (inferred)) [TetraoZ-cyc]”, the “Detachment (%) (100 ng/ml)” value was 43%.
Still for that read-out and setting: the result for “CRVESFDFDWYNIC (disulfide 1-14 (inferred)) [SalmoZ-cyc]” reads 75%.
Same read-out and setting: the result for “CRVESFNYDWYNVC (disulfide 1-14 (inferred)) [NilotiZ-cyc]” reads 65%; that for “CSAPYNFNFYSNWC (disulfide 1-14 (inferred)) [EchoZ-cyc]”, 35%.

In the next experiment the test system is Pseudomonas aeruginosa (ATCC27853). Description: Biofilm detachment, crystal violet, 96-well plate. Type of experiment: cell-based. The settings on record: peptide 100 ng/ml, added after adhesion. The protocol:
as §1, §2, §3, §4
As for “CKVNSFDYDWYNVC (disulfide 1-14 (inferred)) [MeleagZ-cyc]”, the “Detachment (%) (100 ng/ml)” value came out at 65%.
Still for that read-out and setting: the value for “CNVHSFDYDWYNVC (disulfide 1-14 (inferred)) [CanisZ-cyc]” was 72%; that for “CRVESFDFDWYNIC (disulfide 1-14 (inferred)) [SalmoZ-cyc]” was 80%.
On the same count and under the same terms, the value for “CRVESFNYDWYNVC (disulfide 1-14 (inferred)) [NilotiZ-cyc]” was 40%.
Still for that read-out and setting: the value for “CSAPYNFNFYSNWC (disulfide 1-14 (inferred)) [EchoZ-cyc]” was 65%.
